Source: US20050234113A1, “Antioxidant and radical scavenging activity of synthetic analogs of desferrithiocin” (University of Florida Research Foundation, Inc., priority 2002, published 2005)
Marks after values point to notes of the source that are not given here.

Legend:
[1] = Prevention of iron-mediated oxidation of ascorbate (ascorbate-mediated reduction of Fe(III)); conditions: ascorbate 100 μM, FeCl3 30 μM, pH 7.4, ligand/Fe ratios 0-3, 40 min
Description: (§1) The iron chelators were tested for their ability to diminish the iron-mediated oxidation of ascorbate by the method of Dean and Nicholson (Free Radical Res. 20, 83-101 (1994)). Briefly, a solution of freshly prepared ascorbate (100 μM) in sodium phosphate buffer (5 mM, pH 7.4) was incubated in the presence of FeCl3 (30 μM) and chelator (ligand/Fe ratios varied from 0-3) for 40 min. The A265 was read at 10 and 40 min; the ΔA265 in the presence of ligand was compared to that in its absence.
The role of chelators in either inhibition or promotion of the Fenton reaction is related to their capacity to prevent Fe(III) from being reduced to Fe(II). Fe(II) is required for the reduction of H2O2 to HO. and HO^−. The assay involves spectrophotometrically monitoring the disappearance of ascorbate at pH 7.4 in the presence of FeCl3 and chelator at several ligand/Fe ratios. Under these conditions, ascorbate is oxidized to an L-ascorbyl radical anion. This anion then disproportionates to dehydroascorbic acid and ascorbate.
as §1, with “chelators nitrilotriacetic acid (NTA), 1,2-dimethyl-3-hydroxypyridin-4-one (L1), desferrioxamine B (DFO), (S)-4′-(HO)-DADMDFT, and (S,S)-1,11-Bis[5-(4-carboxyl-4,5-dihydro-1,3-thiazol-2-yl)-2,4-dihydroxyphenyl]-4,8-dioxaundecane (BDU)” for “chelators”, “Nicholson, Free” for “Nicholson (Free”, “20:” for “20,”, “(1994).” for “(1994)).”
The measurement examines the disappearance of ascorbate. It is known that DFO, a hydroxamate chelator that forms a 1:1 complex with Fe(III) at a formation constant of approximately 10^31 M^−1, prevents ascorbate-mediated reduction of Fe(III); it serves as a positive control in the present study. Both NTA and L1 promote ascorbate-mediated reduction of Fe(III) and serve as negative controls.

[2] = Quenching of the ABTS radical cation
Description: The iron chelators were tested for their ability to quench the radical cation formed from 2,2′-azinobis(3-ethylbenzothiazoline-6-sulfonic acid) (ABTS) by the method of Re et al. in Free Radic. Biol. Med. 26, 1231-1237 (1999). Briefly, a stock solution of ABTS radical cation was generated by mixing ABTS (10 mM, 2.10 mL) with K2S2O8 (8.17 mM, 0.90 mL) in H2O and […] deep blue-green ABTS radical cation was diluted in sufficient sodium phosphate (10 mM, pH 7.4) to give an A734 of about 0.900. Test compounds were added to a final concentration ranging from 1.25 to 15 μM, and the decrease in A734 was read after 1, 2, 4 and 6 min. The reaction was largely complete by 1 min, but the data presented are based on a 6-min reaction time.
In this assay, a fairly stable radical cation, ABTS^+, was examined, and Trolox, an analog of vitamin E, was used as a positive control. Briefly, the procedure involved generating the blue-green chromophore by the reaction of ABTS with K2S2O8. The radical has absorption maxima at λ=415, 645, 734, and 815 nm. The change in absorbance at 734 nm was noted 6 min after addition of the chelator of interest at various concentrations, and the slope of the ΔA734 vs. ligand concentration line was calculated.
The iron chelators were tested for their ability to quench the radical cation formed from 2,2′-azinobis(3-ethylbenzothiazoline-6-sulfonic acid) (ABTS) by a published method (Re, R., et al., Free Radical Biol. Med. 26:1231-1237 (1999). Briefly, a stock solution of ABTS radical cation was generated by mixing ABTS (10 mM, 2.10 mL) with K2S2O8 (8.17 mM, 0.90 mL) in H2O and allowing the solution to sit in the dark at room temperature for 18 hours. This stock solution of deep blue-green ABTS radical cation was diluted in sufficient sodium phosphate (10 mM, pH 7.4) to give an A734 of about 0.900. Test compounds were added to a final concentration ranging from 1.25 to 15 μM, and the decrease in A734 was read after 1, 2, 4 and 6 min. The reaction was largely complete by 1 min, but the data presented are based on a 6-min. reaction time.
This radical cation decolorization assay utilizes the pre-formed radical monocation of 2,2′-azinobis(3-ethylbenzothiazoline-6-sulfonic acid) (ABTS) and has been used to evaluate the antioxidant capacity of a large number of compounds and mixtures. Briefly, the change in absorbance of the blue-green chromophore was recorded after the addition of the chelator of interest at each of the different concentrations, and the slope of the ΔA734 vs. ligand concentration line was calculated. The positive control for this reaction was Trolox, an analogue of vitamin E. The decrease in A734 as a function of ligand concentration is the comparitor among the five compounds evaluated. Trolox, L1, DFO, (S)-4′-(HO)-DADMDFT and BDU (Table 3). All four of the iron chelators performed better than Trolox; DFO≈BDU>(S)-4′-(HO)-DADMDFT>L1>Trolox. Thus, all of these ligands could be expected to serve as excellent radical scavengers.

[3] = Quenching of the ABTS radical cation; conditions: Table 5; 6-min reaction, initial OD 1.000
[4] = system: acetic acid-induced colitis; assay: Acetic acid-induced colitis in rats, densitometric image analysis of colonic damage; assay type: in vivo; conditions: for Damage (%): 650 μmol kg^−1 intracolonically 30 min before 4% acetic acid, mean ± standard deviation; for protection against acetic acid-induced colonic damage (in words): intracolonic, image analysis and MPO assay
Description: (§2) The ligands were administered to the rats intracolonically as a suspension or solution in distilled water (2 mL) at a dose of 650 μmol kg^−1. The drug solutions were made fresh for each experiment. ROWASA®, the pharmaceutical preparation which contains 5-ASA (2 mL, 66.7 mg mL^−1) was given at a dose of 2318 μmol kg^−1. Control rats received distilled water (2 mL), administered intracolonically.
(§3) Animal care and experimental procedures were approved by the Institutional Animal Care and Use Committee. Colitis was induced by a modification of published methods. Briefly, the rats were anesthetized with sodium pentobarbital, 55 mg kg^−1 intraperitoneally. The abdomen was shaved and prepared for surgery. A midline incision was made, and the cecum and proximal colon were exteriorized. A reversible suture was placed at the junction of the cecum and proximal colon. The colon was rinsed with saline (10 mL), and the fluid and intestinal contents were gently expressed out the rectum. A gum-based rectal plug was inserted. The compound of interest, or distilled water in the control animals (2 mL), was injected intracolonically just distal to the ligature. The cecum and proximal colon were returned to the abdominal cavity; the compound was allowed to remain in the gut for 30 min. Then, the cecum and proximal colon were reexteriorized. The rectal plug was removed, and the drug was gently expressed out of the colon. Acetic acid (4%, 2 mL) was injected into the proximal colon over a 15-20-second time period. The acid was allowed to remain in the gut until one minute had passed (i.e., 40-45 seconds after the end of the acid administration). The no acid control rats received distilled water (2 mL), which was administered in the same manner as was the acetic acid. Air (10 mL) was then injected into the proximal colon to expel the acid or water. The cecal/proximal colon ligature was removed, the gut was returned to the abdominal cavity, and the incisions were closed. The animals were allowed to recover overnight and were sacrificed 24 hr later. The entire length of the colon was removed and assessed for damage both densitometrically and biochemically.
Gross damage was quantitated using Photoshop-based image analysis (version 5.0, Adobe Systems, Mountain View, Calif., USA) on an Apple iMac computer. The Magic Wand tool in the Select menu of Photoshop was used to place the cursor on an area of obvious damage. The tolerance level of the Magic Wand tool was set at 30. The damaged areas were automatically selected by using the Similar command in the Select menu. Then, the Eyedropper tool was used to determine the range of the damage in the highlighted areas. Individual colon images were copied to a blank Photoshop page. The Magic Wand tool, with a tolerance set to 100, was used to select all of the pixels in the colon sample. Then, the Histogram tool, which generates a graph in which each vertical line represents the number of pixels associated with a brightness level, was selected in the Image menu. The Red channel was then selected; the darker (damaged areas) appear on the left side of the histogram and the lighter (normal) areas are on the right side. The cursor was then placed on the histogram, the color range determined in an earlier step was selected, and the number of pixels encompassing that range and the percent damage were quantified automatically.
Two means were employed to assess the damage to the colon in the presence and absence of ligand, computer-based image analysis and colonic MPO measurement. The densitometric method removes much of the subjectivity involved in the simple scoring approaches. A digital image of the prepared colonic tissue is taken, and a clearly damaged segment is highlighted on the screen. Once the computer identifies all other segments of the intestine with the same or greater damage, a pixel number is generated; this number makes it possible to calculate the percentage of damaged intestine.

[5] = system: Myeloperoxidase (MPO) activity in colonic tissue; assay: Myeloperoxidase (MPO) assay in colonic tissue of rats with acetic acid-induced colitis; assay type: in vivo; conditions: 650 μmol kg^−1 intracolonically 30 min before 4% acetic acid, mean ± standard deviation
Description: as §2, §3
The activity of MPO was measured in colonic tissue by a modification of the method of Krawisz et al. in Gastroenterology 87, 1344-1350 (1984). Each excised colon was homogenized in 9 volumes of homogenization buffer (0.5% hexadecyltrimethylammonium bromide (HDTMA) in 50 mM sodium acetate, pH 6.0); this homogenate was centrifuged at 1200 g for 20 min at 4° C. A sample of the supernatant (1.8 mL) was transferred into a microcentrifuge tube and stored frozen at −20° C. for up to one week. Prior to assay, the thawed aliquot was centrifuged at about 10,000 g for 15 minutes at 4° C. The final supernatant (33 μL) was added to a solution of o-dianisidine HCl (0.17 mg mL^−1 in 50 mM sodium acetate, pH 6.0, made fresh daily and filtered immediately before use) (950 μL), the mixture was vortexed, and the peroxidase reaction was initiated by the addition of H2O2 to 50 mM sodium acetate, pH 6.0, made fresh daily (16.7 μL). The A470 at room temperature (ca. 23° C.) was read at 15-second intervals for 2 min. The rates were assessed graphically and are presented as change in milliabsorbance units (ΔmAU)/min per g tissue. Under these conditions, 0.1 “Unit” of purified human leukocyte myeloperoxidase (Sigma M-6908) produced a ΔA470 of about 400 mAU/min.
The biochemical measurement involves measuring the level of MPO in a sample of homogenate of the whole rat colon. When the colon is damaged by the acetic acid, there is an extravasation of neutrophils. The extent of this infiltration can serve as a quantitative marker for tissue damage. Although other leukocytes, such as eosinophils and monocytes, also contribute to the inflammatory response, their contribution is small; the majority of the cells recruited during the acute inflammatory response are neutrophils. […]

[6] = Table 1, A734, six-minute reaction, pH 7.4, 1.25 to 15 μM

Compound: COc1ccc(C2=NC(C)(C(=O)O)CS2)c(O)c1 (centres unmarked) [4′-(CH3O)-DADFT, 4′-methoxydesazadesferrithiocin]
- effect on ascorbate-mediated reduction of Fe(III) (in words) [1]: slowed Fe(III) reduction considerably
- radical trapping compared with Trolox (in words) ([2]; method of Example 6): as effective as Trolox
- Slope × 10^3 OD units/μM (ABTS radical cation quenching) [3]: −36 × 10^3 OD units/μM

Compound: CN(O)C(=O)[C@@]1(C)CSC(c2ccc(O)cc2O)=N1 [4′-(HO)-DADFT-NMH]
- Slope × 10^3 OD units/μM (ABTS radical cation quenching) [2, 6]: −141.4 × 10^3 OD units/μM
- Damage (%) [4]: 46 ± 23%
- protection against acetic acid-induced colonic damage (in words) [4]: moderately effective
- MPO activity [5]: 41021 ± 35525 mAU min^−1g of colonic tissue^−1

Compound: CN(O)C(=O)[C@H]1CSC(c2ccc(O)cc2O)=N1 [4′-(HO)-DADMDFT-NMH]
- Slope × 10^3 OD units/μM (ABTS radical cation quenching) [2, 6]: −135.5 × 10^3 OD units/μM
- Damage (%) [4]: 39 ± 11%
- MPO activity [5]: 18426 ± 20930 mAU min^−1g of colonic tissue^−1

Compound: O=C(O)C1CSC(c2ncccc2O)=N1 (centres unmarked) [DMDFT, desmethyldesferrithiocin]
- Slope × 10^3 OD units/μM (ABTS radical cation quenching) [2, 6]: −1.3 × 10^3 OD units/μM
- Damage (%) [4]: 61 ± 15%
- MPO activity [5]: 39229 ± 27109 mAU min^−1g of colonic tissue^−1

Compound: CN(O)C(=O)C1CSC(c2ncccc2O)=N1 (centres unmarked) [DMDFT-NMH, desmethyldesferrithiocin-N-methyl-hydroxamate]
- Slope × 10^3 OD units/μM (ABTS radical cation quenching) [2, 6]: −47.4 × 10^3 OD units/μM
- Damage (%) [4]: 22 ± 17%
- protection against acetic acid-induced colonic damage (in words) [4]: most effective
- MPO activity [5]: 14406 ± 8683 mAU min^−1g of colonic tissue^−1

Compound: Cc1ccc(O)c(C2=NC(C(=O)O)CC2)c1 (centres unmarked) [PCA, 3,4-dihydro-5-(2-hydroxy-5-methylphenyl)-2H-pyrrole-2-carboxylic acid]
- Slope × 10^3 OD units/μM (ABTS radical cation quenching) [2, 6]: −3.3 × 10^3 OD units/μM
- Damage (%) [4]: 44 ± 11%
- MPO activity [5]: 29942 ± 11255 mAU min^−1g of colonic tissue^−1

Compound: Cc1c(C)c2c(c(C)c1O)CCC(C)(C(=O)O)O2 (centres unmarked) [Trolox, reference compound]
- Slope × 10^3 OD units/μM (ABTS radical cation quenching) [2, 6]: −36.6 × 10^3 OD units/μM
- Slope × 10^3 OD units/μM (ABTS radical cation quenching) ([2]; Table 3, A734, 6-min reaction, values marked b are the inventors' unpublished results): −37^b × 10^3 OD units/μM
- Slope × 10^3 OD units/μM (ABTS radical cation quenching) [3]: −37 × 10^3 OD units/μM
